{
  "source": "ChEMBL document CHEMBL3585331",
  "about": "“Recent advances for FLAP inhibitors” (Bioorg Med Chem Lett, 2015)",
  "key": {"Blood [1]": {"system": "Blood", "test": "Inhibition of LTB4 production in human whole blood", "assay_type": "functional, tissue-based"}, "Blood [2]": {"system": "Blood", "test": "Inhibition of A23187-induced LTB4 production in human whole blood pre-incubated for 15 mins before A23187 stimulation for another 15 mins", "assay_type": "functional, tissue-based"}, "[3]": {"molecular_target": "T1, Arachidonate 5-lipoxygenase-activating protein (Homo sapiens, UniProt P20292)", "T1 sequence (P20292 whole entry)": "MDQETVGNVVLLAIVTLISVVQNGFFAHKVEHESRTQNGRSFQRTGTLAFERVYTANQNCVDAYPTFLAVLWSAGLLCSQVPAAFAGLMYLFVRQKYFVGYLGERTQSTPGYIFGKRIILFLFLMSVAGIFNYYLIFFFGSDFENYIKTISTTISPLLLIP", "test": "Binding affinity to FLAP (unknown origin)"}},
  "data": [
    {"smiles": "CC(C)Cc1ccc(C(C)c2nc3ccccc3n2Cc2ccccc2Cl)cc1", "note": "(stereo unspecified)", "values": [
      {"measurement": "IC50", "setting": "Blood [1]", "result": 0.12, "unit": "µM"}
    ]},
    {"smiles": "CC(C)C(C)(c1ccc(-c2ccc(C(C)(C)O)nn2)cc1)c1ccc(OCc2ccccn2)cn1", "note": "(stereo unspecified)", "values": [
      {"measurement": "IC50", "setting": "Blood [1]", "result": 0.012, "unit": "µM"}
    ]},
    {"smiles": "Nc1cnc(-c2ccc(C3CCC3)c(Oc3ncccn3)c2F)cn1", "values": [
      {"measurement": "IC50", "setting": "Blood [2]", "result": 0.066, "unit": "µM"}
    ]},
    {"smiles": "CC(C)(O)CNC(=O)c1ccc(C2(c3ccc(-c4cnc(N)cn4)cc3)CCCO2)cn1", "note": "(stereo unspecified)", "values": [
      {"measurement": "IC50", "setting": "Blood [1]", "result": 0.062, "unit": "µM"}
    ]},
    {"smiles": "CC(C)(C)Sc1c(CC(C)(C)C(=O)O)n(Cc2ccc(Cl)cc2)c2ccc(OCc3ccc4ccccc4n3)cc12", "note": "[QUIFLAPON]", "values": [
      {"measurement": "IC50", "setting": "Blood [1]", "result": 0.5, "unit": "µM"},
      {"measurement": "IC50", "setting": "[3]", "result": 0.036, "unit": "µM"}
    ]}
  ]
}
